This note sets out measurements from US10517889B2, “Modulators of SMAD7 expression” (Ionis Pharmaceuticals, Inc., priority 2017, dated 2019).

Strand notation (5' to 3'): a small letter for the sugar, then the base; units joined by * are phosphorothioate-linked, units joined directly phosphodiester-linked; [ ] holds rarer units or linkages, { } end groups; capitals alone tell only the bases. k = constrained ethyl (cEt); [5mC] = 5-methylcytosine; d = 2'-deoxy (DNA)

Broadly, the % Inhibition is the change of the read-out against control, counted positive when it falls.

The test system of this data set is human SMAD7 mRNA. The data set is described as follows: Antisense inhibition of human SMAD7 mRNA expression in Hep3B cells by 3-10-3 cEt gapmers, 10,000 nM, electroporation (Example 2). Format: cell-based. The note with it: SMAD7 mRNA, Hep3B cells, 10,000 nM antisense oligonucleotide, electroporation, approximately 24 hours, primer probe set RTS5062, relative to untreated control cells. In short, it runs like this: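 Hep3B cells (20,000 per well) were electroporated with 10,000 nM 16-mer 3-10-3 cEt gapmer (phosphorothioate, 5-methylcytosine). After about 24 h, SMAD7 mRNA was quantified by qRT-PCR with primer probe set RTS5062, normalised to RIBOGREEN total RNA, and expressed as percent inhibition versus untreated cells.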
Regarding “800768 (antisense kG*k[5mC]*kG*d[5mC]*dT*d[5mC]*d[5mC]*dG*dT*dG*dG*d[5mC]*dA*kT*kG*k[5mC]) [compound 800768]”, the “% Inhibition” value was 18%. For “800769 (antisense kG*k[5mC]*kA*dG*dG*d[5mC]*dG*dA*d[5mC]*dA*dG*d[5mC]*dA*kG*k[5mC]*kA) [compound 800769]” the value was 49%. As for “800771 (antisense k[5mC]*k[5mC]*k[5mC]*dG*d[5mC]*dA*dG*d[5mC]*dT*d[5mC]*dG*d[5mC]*d[5mC]*kT*k[5mC]*k[5mC]) [compound 800771]”, the figure is 46%; as for “800776 (antisense kG*kA*kG*dG*d[5mC]*dA*d[5mC]*dG*d[5mC]*dG*dG*dT*dG*k[5mC]*kG*k[5mC]) [compound 800776]”, 36%.

For “800786 (antisense kG*k[5mC]*kA*d[5mC]*d[5mC]*dA*dG*dT*dG*dT*dG*dA*d[5mC]*k[5mC]*kG*kA) [compound 800786]”, the “% Inhibition” value came out at 0%. For “800787 (antisense k[5mC]*kA*kG*dT*dA*dG*dA*dG*d[5mC]*d[5mC]*dT*d[5mC]*d[5mC]*k[5mC]*k[5mC]*kA) [compound 800787]” the value was 38%; for “800793 (antisense kT*kG*kA*d[5mC]*dT*d[5mC]*dT*dT*dG*dT*dT*dG*dT*k[5mC]*k[5mC]*kG) [compound 800793]”, 53%. For “800795 (antisense kT*kA*kA*d[5mC]*dT*dG*d[5mC]*dT*dG*d[5mC]*dG*dG*dT*kT*kG*kT) [compound 800795]” the value was 12%; for “800798 (antisense k[5mC]*k[5mC]*kT*dG*dG*dA*dG*dT*d[5mC]*d[5mC]*dG*dG*dG*kT*kT*kG) [compound 800798]”, 36%; for “800837 (antisense kA*kA*kA*d[5mC]*d[5mC]*dT*dT*dT*dG*dT*dA*dG*dT*kT*kA*kG) [compound 800837]”, 41%. For “800843 (antisense kT*k[5mC]*kG*dG*d[5mC]*d[5mC]*dA*d[5mC]*dA*d[5mC]*dA*d[5mC]*d[5mC]*kT*k[5mC]*kA) [compound 800843]” the value was 32%. Consider “800858 (antisense kA*kG*k[5mC]*d[5mC]*d[5mC]*dA*dA*d[5mC]*dT*dG*dT*dT*dT*kG*kT*k[5mC]) [compound 800858]”, for which the “% Inhibition” value is 40%.

Take “800861 (antisense k[5mC]*k[5mC]*kA*dG*dT*dT*dG*dG*dT*dT*dT*dG*dA*kG*kA*kA) [compound 800861]”: the “% Inhibition” value is recorded as 32%. For the substance “800883 (antisense kA*k[5mC]*k[5mC]*dA*dT*dT*dT*dA*dT*d[5mC]*dT*dG*dG*kT*kG*kT) [compound 800883]”, the “% Inhibition” value is reported as 50%. Take “800998 (antisense k[5mC]*k[5mC]*k[5mC]*dG*d[5mC]*dT*d[5mC]*dT*d[5mC]*dA*dG*d[5mC]*d[5mC]*kA*kG*kG) [compound 800998]”: the “% Inhibition” value worked out at 39%. For “800999 (antisense k[5mC]*kA*kT*dT*d[5mC]*dA*dT*dT*dA*dA*dG*d[5mC]*d[5mC]*k[5mC]*kG*k[5mC]) [compound 800999]” the value was 54%; for “801003 (antisense kG*kA*kA*dT*d[5mC]*dA*dA*dG*d[5mC]*d[5mC]*d[5mC]*dT*dG*kG*k[5mC]*kT) [compound 801003]”, 38%; for “801128 (antisense kA*kG*kT*dA*dT*d[5mC]*d[5mC]*dA*dT*d[5mC]*dA*dA*d[5mC]*kT*kG*k[5mC]) [compound 801128]”, 48%. As for “801132 (antisense kG*kG*kT*dG*dA*d[5mC]*dT*d[5mC]*dA*dT*d[5mC]*dA*dG*kG*k[5mC]*kA) [compound 801132]”, the figure is 55%; as for “801138 (antisense kG*kT*kT*dA*dG*dG*dA*d[5mC]*d[5mC]*dT*dG*dG*dG*kA*kA*k[5mC]) [compound 801138]”, 6%.

“801145 (antisense kA*k[5mC]*kG*d[5mC]*dT*dG*dT*dG*dG*dT*dT*dT*dG*kT*kG*kG) [compound 801145]”: the “% Inhibition” value stood at 0%. For “829715 (antisense kT*k[5mC]*kT*d[5mC]*d[5mC]*d[5mC]*dG*dG*dA*dG*dG*d[5mC]*d[5mC]*kG*kG*kG) [compound 829715]” the value was 40%; for “829716 (antisense kG*kT*k[5mC]*dT*d[5mC]*d[5mC]*d[5mC]*dG*dG*dA*dG*dG*d[5mC]*k[5mC]*kG*kG) [compound 829716]”, 10%.

For the substance “829717 (antisense kA*kG*kT*d[5mC]*dT*d[5mC]*d[5mC]*d[5mC]*dG*dG*dA*dG*dG*k[5mC]*k[5mC]*kG) [compound 829717]”, the “% Inhibition” value is 28%. For “829718 (antisense k[5mC]*k[5mC]*kA*dG*dT*d[5mC]*dT*d[5mC]*d[5mC]*d[5mC]*dG*dG*dA*kG*kG*k[5mC]) [compound 829718]” the value was 15%. As for “829719 (antisense kG*k[5mC]*k[5mC]*dA*dG*dT*d[5mC]*dT*d[5mC]*d[5mC]*d[5mC]*dG*dG*kA*kG*kG) [compound 829719]”, the figure is 15%. In the case of “829720 (antisense kG*k[5mC]*kG*d[5mC]*d[5mC]*dA*dG*dT*d[5mC]*dT*d[5mC]*d[5mC]*d[5mC]*kG*kG*kA) [compound 829720]”, the “% Inhibition” value was 14%. As for “829721 (antisense kT*kG*k[5mC]*dG*d[5mC]*d[5mC]*dA*dG*dT*d[5mC]*dT*d[5mC]*d[5mC]*k[5mC]*kG*kG) [compound 829721]”, the figure is 33%; as for “829722 (antisense kA*kT*kG*d[5mC]*dG*d[5mC]*d[5mC]*dA*dG*dT*d[5mC]*dT*d[5mC]*k[5mC]*k[5mC]*kG) [compound 829722]”, 38%. As for “829723 (antisense kG*k[5mC]*kA*dT*dG*d[5mC]*dG*d[5mC]*d[5mC]*dA*dG*dT*d[5mC]*kT*k[5mC]*k[5mC]) [compound 829723]”, the figure is 54%; as for “829724 (antisense kG*kG*k[5mC]*dA*dT*dG*d[5mC]*dG*d[5mC]*d[5mC]*dA*dG*dT*k[5mC]*kT*k[5mC]) [compound 829724]”, 54%. In the case of “829725 (antisense k[5mC]*k[5mC]*kG*dT*dG*dG*d[5mC]*dA*dT*dG*d[5mC]*dG*d[5mC]*k[5mC]*kA*kG) [compound 829725]”, the “% Inhibition” value worked out at 41%.

As for “829726 (antisense k[5mC]*kT*k[5mC]*d[5mC]*dG*dT*dG*dG*d[5mC]*dA*dT*dG*d[5mC]*kG*k[5mC]*k[5mC]) [compound 829726]”, the “% Inhibition” value amounted to 41%. For the substance “829727 (antisense kG*k[5mC]*kT*d[5mC]*d[5mC]*dG*dT*dG*dG*d[5mC]*dA*dT*dG*k[5mC]*kG*k[5mC]) [compound 829727]”, the “% Inhibition” value was found to be 35%.

“829728 (antisense kG*kG*k[5mC]*dG*d[5mC]*dA*dG*dG*d[5mC]*dG*dA*d[5mC]*dA*kG*k[5mC]*kA) [compound 829728]”: the “% Inhibition” value came to 44%. As for “829729 (antisense kA*kG*kG*d[5mC]*dG*d[5mC]*dA*dG*dG*d[5mC]*dG*dA*d[5mC]*kA*kG*k[5mC]) [compound 829729]”, the figure is 66%. As for “829730 (antisense kG*k[5mC]*kA*dG*dG*d[5mC]*dG*d[5mC]*dA*dG*dG*d[5mC]*dG*kA*k[5mC]*kA) [compound 829730]”, the figure is 23%; as for “829731 (antisense kA*kG*k[5mC]*dA*dG*dG*d[5mC]*dG*d[5mC]*dA*dG*dG*d[5mC]*kG*kA*k[5mC]) [compound 829731]”, 50%. In the case of “829732 (antisense k[5mC]*kA*kT*dG*dA*dA*dG*dA*dA*dG*dT*d[5mC]*dG*kG*kG*k[5mC]) [compound 829732]”, the “% Inhibition” value came out at 40%. As for “829733 (antisense kA*k[5mC]*k[5mC]*dA*dT*dG*dA*dA*dG*dA*dA*dG*dT*k[5mC]*kG*kG) [compound 829733]”, the figure is 54%. For “829735 (antisense k[5mC]*k[5mC]*kT*d[5mC]*d[5mC]*dG*d[5mC]*dA*d[5mC]*dA*d[5mC]*d[5mC]*dA*kT*kG*kA) [compound 829735]” the value was 61%; for “829736 (antisense kG*kG*kA*dG*d[5mC]*dG*dA*dA*d[5mC]*dA*dT*dG*dA*k[5mC]*k[5mC]*kT) [compound 829736]”, 41%. For “829737 (antisense kA*kG*kG*dA*dG*d[5mC]*dG*dA*dA*d[5mC]*dA*dT*dG*kA*k[5mC]*k[5mC]) [compound 829737]” the value was 52%. With “829738 (antisense kT*kA*kA*dG*dG*dA*dG*d[5mC]*dG*dA*dA*d[5mC]*dA*kT*kG*kA) [compound 829738]”, the “% Inhibition” value stood at 49%. As for “829739 (antisense kT*kG*k[5mC]*dT*dA*dA*dG*dG*dA*dG*d[5mC]*dG*dA*kA*k[5mC]*kA) [compound 829739]”, the figure is 44%; as for “829740 (antisense k[5mC]*kT*kG*d[5mC]*dT*dA*dA*dG*dG*dA*dG*d[5mC]*dG*kA*kA*k[5mC]) [compound 829740]”, 52%. For “829741 (antisense k[5mC]*k[5mC]*kG*dG*dA*d[5mC]*dG*dA*dG*d[5mC]*dG*d[5mC]*dA*kG*kA*kT) [compound 829741]” the value was 32%; for “829742 (antisense k[5mC]*kG*k[5mC]*d[5mC]*dG*dG*dA*d[5mC]*dG*dA*dG*d[5mC]*dG*k[5mC]*kA*kG) [compound 829742]”, 43%. For the substance “829743 (antisense kA*k[5mC]*kG*d[5mC]*d[5mC]*dG*dG*dA*d[5mC]*dG*dA*dG*d[5mC]*kG*k[5mC]*kA) [compound 829743]”, the “% Inhibition” value came to 25%.
